# In patent US20260325485A1, “COMPOSITIONS AND METHODS FOR TREATING PANCREATITIS” (The United States Government as represented by the …, priority 2022, published 2026):
# Assays:
# pancreas = assay: Pancreatic total cholesterol and lipids in acute pancreatitis models in WT mice; assay type: in vivo, mouse; conditions: Arg-AP, CER-AP or CDE-AP
# Procedure: FIGS. 8A-8M show derangement of cholesterol metabolism in experimental pancreatitis. Characteristics of cholesterol metabolism were measured, as detailed in FIGS. 4A-4R, in pancreas of WT mice subjected to pancreatitis induced with cerulein (CER-AP), L-arginine (Arg-AP), or CDE diet (CDE-AP) (A, B, and E-G); ex vivo pancreatitis induced in WT mouse (C and I-M) or human acinar cells (D) with 100 nM CCK (CCK-AP) or 1 mM carbachol; and isolated pancreatic mitochondria (H). (B) Cholesterol ester (CE) heatmap; each column represents an individual mouse. (F) IB analysis of the indicated proteins. (G) LAL activity was measured by a fluorogenic assay (n=6 mice per condition). (H) Cholesterol content was measured by enzymatic assay. (I-M) Filipin colocalization with indicated proteins was quantified as detailed in FIGS. 2A-2L. Each symbol in A, C-E, and H represents an individual mouse, or cell or mitochondria preparation (n=3-15 per condition). Each symbol in J, K, and M corresponds to 20-30 cells in a different field (n=10-20 fields from 3 cell preparations per condition). Values are mean±SEM. *P<0.05, **P<0.01, ***P<0.001 vs. the same parameter in control/untreated pancreas, acinar cells or isolated mitochondria. Significance was determined by 2-tailed Student's t test (B, E, H, J, K, and M) or 1-way ANOVA followed by Tukey's multiple comparison test (A, C, and D). Scale bars: 10 μm.
# Parameters of cholesterol metabolism were measured in (A, B, E, F) pancreas of mice subjected to pancreatitis induced with cerulean (CER-AP), L-arginine (Arg-AP), or combination of EtOH+palmitoleic acid (EtOH+POA); and (C) ex-vivo models on mouse and human acinar cells treated for 1 h with 100 nM CCK, […] or 500 μM TLCS. […] (B, C) Total cholesterol content was measured with cholesterol assay kit (Abcam, ab65390). […] Signficance was determined by 2-tailed student's t test. […]
# Total cholesterol content was measured with Cholesterol Assay kit per manufacturer's instructions. […]
# Triglycerides (TAG) content was measured using Triglyceride Assay kit. […]
# trypsin = assay: Trypsin activity in Gnptab−/− acinar cells; assay type: cell-based, mouse; conditions: 3 hours; 50 μM CA-074Me or 20 nM BafA1
# Procedure: FIGS. 6A-6R show mechanisms mediating increased trypsin activity in Gnptab−/− pancreas. Trypsin activity and its regulation were analyzed in pancreatic (A, C, and D) tissue, (B and P-R) acinar cells, (E-H and O) lobules, and (I-N) subcellular fractions. In B, acinar cells were incubated for 3 hours without and with 20 nM BafAl or 50 μM CatB inhibitor CA-074Me; in P-R, with the cholesterol chelator methyl-β-cyclodextrin (MCD) at the indicated concentrations. In E-H, pancreatic lobules were double stained for TAP and LC3 or LAMP2; in O, for TAP and filipin. Quantitative colocalization analysis was done as detailed in FIG. 2. Each symbol in A, B, J-N, Q, and R represents an individual mouse or cell preparation (n=3-8 per condition). Each symbol in D, G, and H corresponds to 20 to 30 cells in a different field (n=9-20 fields from 3 WT and 3 KO mice or lobule preparations). Values are mean±SEM. **P<0.01, ***P<0.001 vs. WT tissue/lobules (A, G, and H) or corresponding WT subcellular fraction (K and M). ##P<0.01 vs. no inhibitors (B) or MCD (Q and R). ††P<0.01, †††P<0.001 vs. the other two fractions (L and N). Significance was determined by 2-tailed Student's t test (A, G, and H) or 1-way ANOVA followed by Tukey's multiple comparison test (B, K-N, Q, and R). Scale bars: 10 μm.
# Activities of cathepsin (Cat) B and L, caspase-3, trypsin, and lysosomal acid lipase (LAL) were measured in pancreatic tissue or cell homogenates and subcellular fractions with fluorogenic assays using substrates specific for CatB (Z-Arg-Arg-AMC), CatL (Z-Phe-Arg-AMC), caspase-3-like ([…]), trypsin (Boc-Gln-Ala-Arg-AMC), as previously described (1-4, 6, 7); and for LAL (4-methylumbelliferyl oleate), as in (17). In measurements of CatL activity, the assay buffer also contained 50 μM CA-074me, a CatB inhibitor. LAL activity was measured in the absence and presence of the LAL inhibitor lalistat (100 μM) as the difference between these values (17).
# LC3-II = assay: Autophagic flux analysis: LC3-II immunoblot in pancreatic acinar cells; assay type: cell-based, mouse; conditions: 30 minutes
# Procedure: FIGS. 2A-2L show Gnptab ablation stimulates autophagosome formation and blocks autophagic flux in pancreatic acinar cells. Parameters of autophagy were measured in WT and […] pancreatic (A-C) acinar cells and (D-L) tissue. (A-C) Acinar cells incubated for 30 minutes with and without bafilomycin A1 (BafA1; 20 nM); LC3-II band intensity was quantified by densitometry, normalized to ERK in the same sample, and LC3-II/ERK ratios further normalized to untreated WT cells (control). Values are mean±SEM; each symbol represents an individual cell preparation (n=4-6 per condition). sP<0.05; paired 2-tailed Student's t test. (D) IB analysis of autophagic markers/mediators. Ub, ubiquitylated proteins. (E-K) Immunofluorescence colocalization analysis for LC3 and LAMP1 (E, G, and H), and LC3 and Stx17 (F and I-K) in WT and KO pancreas. In this and other figures, colocalization was quantified with Volocity software using Manders-Costes (percentage colocalization) and Pearson's coefficients. Values are mean±SEM; each symbol corresponds to 20 to 30 cells in a different field (n=6-9 fields from 3 mice per condition). ***P<0.001 vs. WT; 2-tailed Student's t test. (L). EM showing abnormally large autolysosomes with partially degraded material in pancreas of KO mice. Scale bars: 10 μm (E and F) and 3 μm (L).
# To further assess the effects of Gnptab KO on autophagy, autophagic flux analysis was performed by measuring changes in LC3-II in acinar cells incubated with and without the lysosomal v-ATPase inhibitor, bafilomycin A1 (BafA1) (FIG. 2, A-C). The number of autophagic vacuoles in a cell is a net balance between autophagosome formation and their degradation through autophagic flux. Thus, the increase in LC3-II observed in KO pancreas (FIG. 1F and FIG. 2D; see also FIG. 17G) could have resulted from both induction of autophagosome formation and the inhibition of flux. […]
# Immunoblots were developed using enhanced chemiluminescence detection kit (Pierce), and band intensities were quantified by densitometry using FluorChem HD2 imaging system (Alpha Innotech/ProteinSimple).
# neutral lipids = assay: BODIPY 493/503 staining of neutral lipids in acinar cells; assay type: cell-based, mouse; conditions: BafA1 20 nM
# Procedure: FIGS. 13A-13G show neutral lipids accumulate in LE/Ly and autophagic compartments of Gnptab^−/− pancreas. Characteristics of neutral lipid metabolism were measured in (A-C,F,G) pancreatic tissue of WT, Gnptab^−/− (KO) and Atg5^Δpan mice, and (D,E) WT and KO acinar cells treated with Bafilomycin A1 (BafA1; 20 nM). (A) EM showing lipid inclusions in KO pancreas. (B-E) Tissue or cells were stained with BODIPY 493/503 for neutral lipids; BODIPY fluorescence intensity was quantified with Volocity software, normalized to the number of nuclei (DAPI) in the field, and expressed relative to WT control. […] (F,G) Perilipins (PLINs) were analyzed by immunoblot; their band intensities were densitometrically quantified, normalized to GAPDH in the same sample and, further, to WT. […] Significance was determined by 2-tailed Student's t test (G) or 1-way ANOVA followed by Tukey's multiple comparisons test (C,E). […]
# All fluorescence images were acquired with a Zeiss LSM710 confocal microscope using x63 objective and preset within-experiment image acquisition settings. Quantitative fluorescence analysis was performed with Volocity software (PerkinElmer). Overlap between 2 fluorescent labels was measured using Manders-Costes coefficient. Pearson's colocalization coefficient was calculated if both immunolabeled proteins had the same (e.g. “dotted”) staining pattern.
Structure (SMILES),"pancreatic total cholesterol, AP models (pancreas)","Reduction of trypsin activity, Gnptab−/− acinar cells (trypsin)","LC3-II levels in KO compared with WT in presence of BafA1 (LC3-II; BafA1 20 nM, Gnptab−/− vs WT acinar cells)","LC3-II increase by BafA1, KO (LC3-II; Gnptab−/− (KO) acinar cells, 20 nM)","LC3-II increase by BafA1, WT (LC3-II; WT acinar cells, 20 nM)","BODIPY staining, KO (neutral lipids; Gnptab−/− acinar cells)","BODIPY staining increase, WT (neutral lipids; WT acinar cells)"
N=C(N)NCCC[C@H](N)C(=O)O [L-arginine],increases,,,,,,
"CO/C1=C\C(C)=C\[C@@H](C)[C@@H](O)[C@@H](C)C/C(C)=C/C=C/[C@H](OC)[C@@H]([C@@H](C)[C@@H](O)[C@H](C)[C@@]2(O)C[C@@H](O)[C@H](C)[C@@H](C(C)C)O2)OC1=O [BafA1, bafilomycin A1]",,by half,approximately 11 fold,no increase,approximately 4 fold,no additional effect,approximately 3 fold
